Laboratory results as given in ChEMBL document CHEMBL1130052, “Substituted [(4-phenylpiperazinyl)-methyl]benzamides: selective dopamine D4 agonists” (J Med Chem, 1997).

Assays:
D(2) dopamine receptor = D(2) dopamine receptor (Homo sapiens, UniProt P14416); experiment: Binding affinity for human Dopamine receptor D2 expressed in CHO K1 transfected cells using [3H]spiperone as radioligand; format: cell-based
D(3) dopamine receptor = D(3) dopamine receptor (Homo sapiens, UniProt P35462); experiment: Binding affinity for human Dopamine receptor D3 expressed in CHO K1 transfected cells using [3H]spiperone as radioligand; format: cell-based
D(4) dopamine receptor = biological target: T1, D(4) dopamine receptor (Homo sapiens, UniProt P21917); experiment: biochemical
T1 sequence (P21917 whole entry): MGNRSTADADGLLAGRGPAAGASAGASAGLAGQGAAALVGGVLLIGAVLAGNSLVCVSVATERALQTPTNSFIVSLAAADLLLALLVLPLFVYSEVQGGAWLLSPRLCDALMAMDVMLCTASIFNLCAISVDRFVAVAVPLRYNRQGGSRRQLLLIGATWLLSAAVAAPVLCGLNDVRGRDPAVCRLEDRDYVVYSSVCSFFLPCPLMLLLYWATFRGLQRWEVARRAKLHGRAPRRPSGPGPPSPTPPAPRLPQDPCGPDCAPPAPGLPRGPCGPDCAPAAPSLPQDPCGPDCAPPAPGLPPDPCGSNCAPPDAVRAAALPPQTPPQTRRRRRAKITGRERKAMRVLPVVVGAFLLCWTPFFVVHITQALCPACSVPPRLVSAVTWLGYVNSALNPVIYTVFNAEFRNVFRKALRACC
Description: Binding affinity for human Dopamine receptor D4 expressed in CHO K1 transfected cells using [3H]spiperone as radioligand

[1] = biological target: T2, 5-hydroxytryptamine receptor 1A (Mus musculus, UniProt Q64264); experiment: Binding affinity at 5-hydroxytryptamine 1A receptor
T2 sequence (Q64264 whole entry): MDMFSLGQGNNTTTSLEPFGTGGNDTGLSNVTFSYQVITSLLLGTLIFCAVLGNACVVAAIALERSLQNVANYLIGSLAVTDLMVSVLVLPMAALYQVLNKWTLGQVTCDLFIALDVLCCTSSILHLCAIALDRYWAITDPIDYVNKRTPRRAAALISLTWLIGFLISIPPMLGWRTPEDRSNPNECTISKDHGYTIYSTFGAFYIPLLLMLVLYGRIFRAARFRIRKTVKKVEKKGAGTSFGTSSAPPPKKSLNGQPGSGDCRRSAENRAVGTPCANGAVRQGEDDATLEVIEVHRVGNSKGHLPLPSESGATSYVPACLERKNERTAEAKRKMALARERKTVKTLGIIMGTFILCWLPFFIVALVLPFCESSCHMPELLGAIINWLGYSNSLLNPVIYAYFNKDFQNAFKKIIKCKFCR

[2] = biological target: 5-hydroxytryptamine receptor 2A (Homo sapiens, UniProt P28223); experiment: Binding affinity at 5-hydroxytryptamine 2A receptor
Sequence of 5-hydroxytryptamine receptor 2A (P28223 whole entry): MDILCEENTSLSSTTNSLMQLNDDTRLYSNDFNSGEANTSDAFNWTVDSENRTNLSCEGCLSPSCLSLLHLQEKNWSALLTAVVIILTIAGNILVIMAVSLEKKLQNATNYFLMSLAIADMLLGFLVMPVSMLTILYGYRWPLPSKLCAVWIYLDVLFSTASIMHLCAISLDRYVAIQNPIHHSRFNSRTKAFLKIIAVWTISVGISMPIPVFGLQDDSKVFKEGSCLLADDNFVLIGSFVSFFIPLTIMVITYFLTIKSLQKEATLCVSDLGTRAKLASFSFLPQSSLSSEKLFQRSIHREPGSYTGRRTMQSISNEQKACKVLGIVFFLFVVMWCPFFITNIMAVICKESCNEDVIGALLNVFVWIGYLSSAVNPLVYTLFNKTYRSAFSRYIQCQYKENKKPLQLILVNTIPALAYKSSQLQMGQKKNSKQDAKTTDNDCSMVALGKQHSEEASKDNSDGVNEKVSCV

Sequence of D(2) dopamine receptor (P14416 whole entry): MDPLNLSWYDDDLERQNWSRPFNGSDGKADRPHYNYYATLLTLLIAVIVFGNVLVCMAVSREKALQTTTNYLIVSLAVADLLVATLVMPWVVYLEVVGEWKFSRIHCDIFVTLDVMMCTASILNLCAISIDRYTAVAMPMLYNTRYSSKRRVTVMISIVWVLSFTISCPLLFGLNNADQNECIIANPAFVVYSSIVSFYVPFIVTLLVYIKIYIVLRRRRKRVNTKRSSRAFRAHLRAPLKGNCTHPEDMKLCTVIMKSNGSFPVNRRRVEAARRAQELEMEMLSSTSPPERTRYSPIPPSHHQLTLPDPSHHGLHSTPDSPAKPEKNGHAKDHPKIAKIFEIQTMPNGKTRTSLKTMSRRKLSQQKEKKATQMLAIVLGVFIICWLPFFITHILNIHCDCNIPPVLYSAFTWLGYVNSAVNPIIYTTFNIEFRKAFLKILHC
Sequence of D(3) dopamine receptor (P35462 whole entry): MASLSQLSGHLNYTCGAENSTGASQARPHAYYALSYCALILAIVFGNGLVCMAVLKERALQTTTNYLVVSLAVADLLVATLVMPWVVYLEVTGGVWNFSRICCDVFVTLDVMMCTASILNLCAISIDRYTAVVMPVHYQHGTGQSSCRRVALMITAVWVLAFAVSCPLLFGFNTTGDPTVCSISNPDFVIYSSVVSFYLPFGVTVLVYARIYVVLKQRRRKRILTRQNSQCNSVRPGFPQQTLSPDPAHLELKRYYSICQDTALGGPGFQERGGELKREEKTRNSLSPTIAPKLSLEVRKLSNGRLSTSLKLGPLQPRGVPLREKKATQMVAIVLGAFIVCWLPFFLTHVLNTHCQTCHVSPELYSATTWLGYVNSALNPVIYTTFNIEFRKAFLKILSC

| Ki (D(2) dopamine receptor) | Ki (D(3) dopamine receptor) | Ki (D(4) dopamine receptor) | Ki [1] | Ki [2] | Structure (SMILES) |
| --- | --- | --- | --- | --- | --- |
| 2420 nM | 364 nM | 41 nM |  |  | O=C(NCN1CCN(c2ccccc2Cl)CC1)c1cccc(Cl)c1 |
| 835 nM | 2480 nM | 6.7 nM |  |  | COc1ccccc1N1CCN(CNC(=O)c2cccc(C)c2)CC1 |
|  | 66 nM | 5.3 nM |  |  | O=C(NCN1CCN(c2ccccc2Cl)CC1)c1ccc(Cl)cc1 |
| 1330 nM | 464 nM | 27 nM |  |  | Cc1cccc(C(=O)NCN2CCN(c3ccccc3Cl)CC2)c1 |
| 1500 nM | 177 nM | 32 nM |  |  | O=C(NCN1CCN(c2ccccc2Cl)CC1)c1ccccc1 |
| 1150 nM | 377 nM | 6.5 nM |  |  | Cc1ccc(C(=O)NCN2CCN(c3ccccc3C#N)CC2)cc1 |
| 4180 nM | > 3000 nM | 27 nM |  |  | N#Cc1ccccc1N1CCN(CNC(=O)c2ccccc2)CC1 |
|  | 2470 nM | 22 nM |  |  | COc1ccccc1N1CCN(CNC(=O)c2ccccc2)CC1 |
| 451 nM | 1450 nM | 15 nM |  |  | COc1ccccc1N1CCN(CNC(=O)c2cccc(Cl)c2)CC1 |
| 349 nM | 268 nM | 14 nM |  |  | COc1ccccc1N1CCN(CNC(=O)c2ccc(Cl)cc2)CC1 |
| 897 nM | 2270 nM | 34 nM |  |  | N#Cc1ccccc1N1CCN(CNC(=O)c2cccc(Cl)c2)CC1 |
| 929 nM | 600 nM | 5.5 nM |  |  | N#Cc1ccccc1N1CCN(CNC(=O)c2ccc(Cl)cc2)CC1 |
| 291 nM | 174 nM | 7.7 nM |  |  | COc1ccccc1N1CCN(CNC(=O)c2ccc(C)cc2)CC1 |
| 466 nM | 49 nM | 12 nM |  |  | Cc1ccc(C(=O)NCN2CCN(c3ccccc3Cl)CC2)cc1 |
| 3740 nM | 2810 nM |  | 385 nM | 4010 nM | Cc1cccc(C(=O)NCN2CCN(c3ccccc3C#N)CC2)c1 [PD-168,077] |
